In brackets after ≈: the same amount, converted by molar mass. Read-outs that look alike come from different tables or passages of the source.
Assays:
physchem [1] = settings: pH 7.4, aqueous buffer, Solubility Dulbecco's PBS pH 7.4
[2] = test system: H9c2 (2-1), normal rat cardiac muscle cells; settings: 24 h
CYP2D6 = CYP2D6 (Homo sapiens, UniProt P10635); test: in vitro; settings: CYP2D6 (% inhibition)
CYP3A4 = CYP3A4 (Homo sapiens, UniProt P08684); test: in vitro; settings: CYP3A4 (% inhibition)
Sequence of CYP3A4 (P08684 whole entry): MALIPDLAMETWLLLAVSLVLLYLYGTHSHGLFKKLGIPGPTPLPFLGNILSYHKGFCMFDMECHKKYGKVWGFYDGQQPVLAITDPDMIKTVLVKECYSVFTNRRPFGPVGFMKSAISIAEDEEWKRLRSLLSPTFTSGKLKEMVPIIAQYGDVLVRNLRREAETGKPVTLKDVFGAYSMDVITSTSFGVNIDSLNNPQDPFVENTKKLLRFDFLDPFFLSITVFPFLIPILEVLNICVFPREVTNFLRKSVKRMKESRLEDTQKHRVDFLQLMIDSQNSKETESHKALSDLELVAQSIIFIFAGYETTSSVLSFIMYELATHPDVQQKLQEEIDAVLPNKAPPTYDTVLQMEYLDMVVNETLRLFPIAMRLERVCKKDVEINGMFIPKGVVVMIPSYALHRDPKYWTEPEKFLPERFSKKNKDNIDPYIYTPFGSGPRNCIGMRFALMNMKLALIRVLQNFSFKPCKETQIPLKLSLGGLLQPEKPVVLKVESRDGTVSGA

physchem [3] = settings: pH 7.4, log D n-Octanol-Dulbecco's PBS pH 7.4
[4] = test system: NRK-52E, normal rat kidney cells; settings: 24 h
Experimental: In order to assess the cytotoxicity of the drugs to normal cells, we used 96 well plates plated at a density of 5000 cells per well (except for the FDC-P1 which were plated at 12,000 cells per well) with normal cell lines (ATCC, Table 1) maintained as per the directions of the ATCC: AML-12, normal mouse liver cells; NRK-52E, normal rat kidney cells; L8, normal rat skeletal muscle cells; FDC-P1, normal mouse myelogeous stem cells; and H9c2 (2-1), normal rat cardiac muscle cells. The cells in each plate were permitted to settle overnight before adding the test drug.
To each well (100 μl medium) 10 μl of drug in media was added at varying concentrations (1×10-10-0.01 mg/ml final concentration) and further incubated overnight at 37° C. with 5% CO2. After 24 h the following assays were performed. All experiments were repeated at least 3 times and were assayed in duplicate.
MTS assay (CellTiter 96 aqueous) was performed according to the manufacturer's (Promega) directions (for all cell types). Cell viability (mitochondrial activity) is determined via enzymatic conversion of the formazan substrate.

[5] = test system: L8, normal rat skeletal muscle cells; settings: 24 h
[6] = test system: AML-12, normal mouse liver cells; settings: 24 h
[7] = s9, 60 min, 1 μM
in vitro = settings: human, Caco-2
Text: The intestinal epithelium permeability is a critical characteristic that determines the rate and extent of human absorption and ultimately the bioavailability of a drug candidate. Caco-2 permeability assay allows a rapid assessment of membrane permeability and thus helps to rank-order compounds in terms of their absorption potential.
The Caco-2 cell line is a human colon adenocarcinoma cell line that differentiates in culture and resembles the epithelial lining of the human small intestine.
The apparent permeability coefficients (Papp) was determined in the apical-to-basolateral (A-to-B) direction across the cell monolayers (TC-7 sub-clone of the Caco-2) cultured on polycarbonate membrane filters. Compounds were tested at 50 μM with at a final DMSO concentration of 1%. Samples were analyzed by HPLC-MS or HPLC-MS/MS.
The test compound was added to the apical side and the Papp was determined based on the rate of appearance of the test compound in the basolateral side after 2 h-incubation. Two reference compounds, propranolol (highly permeable) and ranitidine (poorly permeable), are tested in each assay as controls.

[8] = test system: FDC-P1, normal mouse myelogeous stem cells; settings: 24 h
MCF = test: cells; assay type: cell-based; settings: Homo sapiens; for CC50: read-out: LC50; for IC (TGI): read-out: TGI
In short: (§1)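 Continuous 48 h drug exposure of attached human cancer cells (5×10^3/well, RPMI 1640, 10% FBS), doses 10 to 10^−8 μg/ml. Endpoint is SRB staining after TCA fixation, read at 490 nm. GI, TGI and LC calculated from triplicate means.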

HT29 = test: cells; assay type: cell-based; settings: Homo sapiens, HT-29, 48 h; for GI50 / IC (TGI): HT29, 48 hours exposure, SRB; for CC50: read-out: LC50, HT29, 48 hours exposure, SRB
In short: as §1

MB231 = test: cells; assay type: cell-based; settings: Homo sapiens; for CC50: read-out: LC50; for IC (TGI): read-out: TGI
In short: as §1

DU145 = test: cells; assay type: cell-based; settings: Homo sapiens, DU-145, 48 h; for GI50 / IC (TGI): DU145, 48 hours exposure, SRB; for CC50: read-out: LC50, DU145, 48 hours exposure, SRB
In short: as §1

A549 = test: cells; assay type: cell-based; settings: Homo sapiens, A549, 48 h; for IC (TGI): read-out: TGI; for CC50: read-out: LC50, A549, 48 hours exposure, SRB
In short: as §1

SW-620 = test: cells; assay type: cell-based; settings: Homo sapiens; for CC50: SW-620, 48 h, read-out: LC50; for IC (TGI) / GI50: SW-620, 48 hours exposure, SRB; for GI50: read-out: GI50
In short: as §1

A498 = test: cells; assay type: cell-based; settings: Homo sapiens; for CC50: A498, 48 h, read-out: LC50; for GI50 / IC (TGI): A498, 48 hours exposure, SRB
In short: as §1

MEL-28 = test: cells; assay type: cell-based; settings: Homo sapiens, SK-MEL-28, 48 h; for GI50 / IC (TGI): MEL-28, 48 hours exposure, SRB; for CC50: read-out: LC50, MEL-28, 48 hours exposure, SRB
In short: as §1

(HEPG2) = settings: human, 24 h, 30 μM
[9] = A549, 48 hours exposure, SRB, read-out: GI50

Sequence of CYP2D6 (P10635 whole entry): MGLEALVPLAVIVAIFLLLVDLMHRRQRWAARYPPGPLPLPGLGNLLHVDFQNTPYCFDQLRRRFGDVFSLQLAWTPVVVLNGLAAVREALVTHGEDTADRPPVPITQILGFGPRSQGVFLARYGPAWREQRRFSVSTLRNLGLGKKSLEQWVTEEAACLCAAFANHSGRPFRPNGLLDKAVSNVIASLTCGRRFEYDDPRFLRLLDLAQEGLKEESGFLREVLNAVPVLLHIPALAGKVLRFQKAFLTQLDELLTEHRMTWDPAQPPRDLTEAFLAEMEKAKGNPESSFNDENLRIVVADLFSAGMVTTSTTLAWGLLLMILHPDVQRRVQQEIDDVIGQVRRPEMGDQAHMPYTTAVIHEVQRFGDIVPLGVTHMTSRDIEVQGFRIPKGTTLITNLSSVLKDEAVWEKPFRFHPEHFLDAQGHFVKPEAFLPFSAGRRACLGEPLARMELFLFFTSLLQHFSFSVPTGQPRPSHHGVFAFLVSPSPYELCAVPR

| Compound | solubility (physchem [1]) [µM] | Heart [2] | inhibition at 30 min, 10 µM (CYP3A4) [%] | logD at 60 min (physchem [3]) | Kidney [4] | Skeletal [5] | Liver [6] | Human Liver S9 Metabolic Stability (% remaining) [7] [% remaining] | Papp A→B at 2 h, 50 μM (in vitro) [×10⁻⁶ cm/s] | Myelo [8] | CC50 (MCF; 48 h) [nM] | GI50 (MCF; MCF, 48 hours exposure, SRB) [nM] | GI50 (HT29) [nM] | IC (TGI) (HT29) [nM] | CC50 (HT29) [nM] | CC50 (MB231; 48 h) [nM] | GI50 (MB231; MB231, 48 hours exposure, SRB) [nM] | GI50 (DU145) [nM] | IC (TGI) (DU145) [nM] | CC50 (DU145) [nM] | also measured |
| --- | --- | --- | --- | --- | --- | --- | --- | --- | --- | --- | --- | --- | --- | --- | --- | --- | --- | --- | --- | --- | --- |
| COc1ccc2[nH]c3c(c2c1)CCN[C@]31CS[C@@H]2c3c(OC(C)=O)c(C)c4c(c3[C@H](COCC1=O)N1C2[C@H]2c3c(cc(C)c(OC)c3O)C[C@@H]([C@@H]1O)N2C)OCO4 (stereo partly shown) [Compound 27] | 2.99 (≈ 2.39 µg/mL) | 9.93E−08 | 53 | > 5 | 1.01E−08 | 1.54E−08 | 1.48E−08 | 7 | < 1.18 | 1.75E−08 | 11.5 | 0.255 | 0.255 | 0.764 | 1.15 | 12.7 | 0.255 | 0.0255 | 0.0892 | 3.82 | inhibition at 450 min, 10 µM (CYP2D6): 13%; IC (TGI) (MCF; 48 h): 1.27 nM; IC (TGI) (MB231; MB231, 48 hours exposure, SRB): 6.37 nM; GI50 (A549; [9]): 0.255 nM; IC (TGI) (A549; A549, 48 hours exposure, SRB): 0.892 nM; CC50 (A549): 6.37 nM; CC50 (SW-620): 1.15 nM; IC (TGI) (SW-620): 0.637 nM; GI50 (SW-620): 0.255 nM; CC50 (A498): 1.27 nM; GI50 (A498): 0.255 nM; IC (TGI) (A498): 0.51 nM; GI50 (MEL-28): 0.255 nM; IC (TGI) (MEL-28): 0.637 nM; CC50 (MEL-28): 1.27 nM |
| COc1c(C)cc2c(c1O)[C@@H]1C3[C@@H]4SC[C@]5(NCCc6c5[nH]c5ccc(OCc7ccccc7)cc65)C(=O)COC[C@@H](c5c6c(c(C)c(OC(C)=O)c54)OCO6)N3[C@@H](O)[C@H](C2)N1C (stereo partly shown) [Compound 29] | 1.59 (≈ 1.39 µg/mL) | 7.22E−08 | 55 | > 4.9 | 1.94E−08 | 3.29E−07 | 1.59E−08 | 9 |  | 1.79E−08 | 116 | 23.2 | 23.2 | 69.7 | 105 | 116 | 23.2 | 23.2 | 34.8 | 92.9 | inhibition at 450 min, 10 µM (CYP2D6): 27%; Cell Viability (% inhibition) ((HEPG2)): 29 % inhibition; IC (TGI) (MCF; MCF, 48 hours exposure, SRB): 34.8 nM; IC (TGI) (MB231; MB231, 48 hours exposure, SRB): 46.5 nM; GI50 (A549; [9]): 23.2 nM; IC (TGI) (A549; A549, 48 hours exposure, SRB): 34.8 nM; CC50 (A549): 92.9 nM; CC50 (SW-620): 105 nM; IC (TGI) (SW-620): 69.7 nM; GI50 (SW-620): 23.2 nM; CC50 (A498): 116 nM; GI50 (A498): 3.48 nM; IC (TGI) (A498): 11.6 nM; GI50 (MEL-28): 23.2 nM; IC (TGI) (MEL-28): 34.8 nM; CC50 (MEL-28): 81.3 nM |
| COc1c(C)cc2c(c1O)[C@@H]1C3[C@@H]4SC[C@]5(NCCc6c5[nH]c5ccc(O)cc65)C(=O)COC[C@@H](c5c6c(c(C)c(OC(C)=O)c54)OCO6)N3[C@@H](O)[C@H](C2)N1C (stereo partly shown) [Compound 31] | 18.3 (≈ 14.3 µg/mL) | 6.65E−08 | 84 | 3.61 | 4.27E−08 | 1.35E−08 | 1.89E−08 | 17 | < 0.32 | 3.18E−08 | 11.7 | 2.59 | 3.89 | 7.78 | 13 | 13 | 1.3 | 1.3 | 3.89 | 9.08 | Cell Viability (% inhibition) ((HEPG2)): 22 % inhibition; IC (TGI) (MCF; MCF, 48 hours exposure, SRB): 5.19 nM; IC (TGI) (MB231; MB231, 48 hours exposure, SRB): 5.19 nM; GI50 (A549; [9]): 2.59 nM; IC (TGI) (A549; A549, 48 hours exposure, SRB): 5.19 nM; CC50 (A549): 38.9 nM; CC50 (SW-620): 11.7 nM; IC (TGI) (SW-620): 3.89 nM; GI50 (SW-620): 2.59 nM; CC50 (A498): 13 nM; GI50 (A498): 2.59 nM; IC (TGI) (A498): 6.49 nM; GI50 (MEL-28): 2.59 nM; IC (TGI) (MEL-28): 3.89 nM; CC50 (MEL-28): 10.4 nM |
| COc1c(C)cc2c(c1O)[C@@H]1C3[C@@H]4SC[C@]5(NCCc6c5[nH]c5cc(F)ccc65)C(=O)COC[C@@H](c5c6c(c(C)c(OC(C)=O)c54)OCO6)N3[C@@H](O)[C@H](C2)N1C (stereo partly shown) [Compound 32] | 14.3 (≈ 11.2 µg/mL) | 2.42E−07 | 83 | > 4.3 | 1.45E−07 | 1.51E−08 | 6.00E−07 | 9 |  | 5.25E−07 | 129 | 9.06 | 7.76 | 25.9 | 103 | 90.6 | 2.59 | 1.29 | 2.59 | 3.88 | inhibition at 450 min, 10 µM (CYP2D6): 12%; Cell Viability (% inhibition) ((HEPG2)): 39 % inhibition; IC (TGI) (MCF; MCF, 48 hours exposure, SRB): 25.9 nM; IC (TGI) (MB231; MB231, 48 hours exposure, SRB): 9.06 nM; GI50 (A549): 3.88 nM; IC (TGI) (A549; A549, 48 hours exposure, SRB): 25.9 nM; CC50 (A549): 90.6 nM; CC50 (SW-620): 129 nM; IC (TGI) (SW-620): 25.9 nM; GI50 (SW-620): 5.17 nM; CC50 (A498): 51.7 nM; GI50 (A498): 2.59 nM; IC (TGI) (A498): 9.06 nM; GI50 (MEL-28): 2.59 nM; IC (TGI) (MEL-28): 10.3 nM; CC50 (MEL-28): 25.9 nM |
| COc1c(C)cc2c(c1O)[C@@H]1C3[C@@H]4SC[C@]5(C(=O)COC[C@@H](c6c7c(c(C)c(OC(C)=O)c64)OCO7)N3[C@@H](O)[C@H](C2)N1C)c1[nH]c2ccc(O)cc2c1CCN5C (stereo partly shown) [Compound 33] | 68.9 (≈ 55.1 µg/mL) | 1.27E−06 | 84 | 3.5 | 7.78E−09 | 1.41E−08 | 1.05E−08 | 10 | 7.77 | 1.92E−08 | 11.5 | 1.02 | 0.255 | 0.764 | 1.15 | 12.7 | 0.255 | 0.382 | 0.892 | 3.82 | inhibition at 450 min, 10 µM (CYP2D6): 28%; Cell Viability (% inhibition) ((HEPG2)): 32 % inhibition; IC (TGI) (MCF; MCF, 48 hours exposure, SRB): 2.55 nM; IC (TGI) (MB231; 48 h): 1.27 nM; GI50 (A549; [9]): 0.382 nM; CC50 (A549): 5.1 nM; IC (TGI) (A549): 1.27 nM; CC50 (SW-620): 10.2 nM; IC (TGI) (SW-620): 1.15 nM; GI50 (SW-620): 0.255 nM; CC50 (A498): 1.27 nM; GI50 (A498): 0.255 nM; IC (TGI) (A498): 0.51 nM; GI50 (MEL-28): 0.255 nM; IC (TGI) (MEL-28): 0.637 nM; CC50 (MEL-28): 1.15 nM |
| CC(C)NCC(O)COc1cccc2ccccc12 (stereo not shown) [propranolol, reference compound] |  |  |  |  |  |  |  |  | > 20 |  |  |  |  |  |  |  |  |  |  |  |  |
| CNC(=C[N+](=O)[O-])NCCSCc1ccc(CN(C)C)o1 [ranitidine, reference compound] |  |  |  |  |  |  |  |  | < 5 |  |  |  |  |  |  |  |  |  |  |  |  |
